Assay results taken from ChEMBL document CHEMBL1121467, “Prostaglandins and congeners. 25. Inhibition of gastric acid secretion. Replacement of the carboxylate moiety of a prostaglandin with a hydroxymethylketo functional group” (1980).

Tests used:
Canis familiaris [1] = assay: Inhibition of gastric acid secretion (cumulative 75 min) in the dog fistula preparation was measured as acid output, after intragastric administration of 10 ug/kg; type: functional, Canis lupus familiaris, Stomach
Canis familiaris [2] = assay: Inhibition of gastric acid secretion (cumulative 75 min) in the dog fistula preparation was measured as total volume, after intragastric administration of 10 ug/kg; type: functional, Canis lupus familiaris, Stomach

Row | Structure (SMILES) | Acid output (Canis familiaris [1]) | Volume (Canis familiaris [2])
1 | CCCCC(C)(O)C/C=C/C1[C@H](O)CC(=O)[C@@H]1CCCCCCC(=O)CO (some centres undefined) | 6.9 m equiv [H+] l-1 | 59 mL
2 | CCCCC(C)(O)C/C=C/C1[C@H](O)CC(=O)[C@@H]1C/C=C/CCCC(=O)CO (some centres undefined) | 7.5 m equiv [H+] l-1 | 76 mL
